Measurements as given in paper PMC12078564 (Nature Communications, 2025).
pKd: −log10 of the molar value.

Key:
[1] = target: Ct2OGD1 (2-oxoglutarate-dependent dioxygenase), purified recombinant, NHS-labelled (Carthamus tinctorius); test: MST
[2] = test system: CtCGT; test: HPLC C-glycosylation assay, Michaelis-Menten fit; format: biochemical, Carthamus tinctorius; conditions: read-out: apparent Km; saturated UDP-Glc as sugar donor

How did the pKd [1] turn out when “CtCGT (flavonoid di-C-glycosyltransferase, UGT708U8), purified recombinant (enzyme)” was run?
The pKd was 6.27.

O=C(CCc1ccc(O)cc1)c1c(O)cc(O)c([C@@H]2O[C@H](CO)[C@@H](O)[C@H](O)[C@H]2O)c1O [1a, nothofagin] was tested. Which Km [2] did it give?
The Km was 284 µM.

For O=C(CCc1ccc(O)cc1)c1c(O)cc(O)cc1O [compound 1, phloretin], which Km [2] is on record?
The Km was 1.86 µM.
